Source: PubChem BioAssay AID463206 (Broad Institute, 2010)
Activity calls are given as the source filed them.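 The calls were made as follows: active = caspase luminescence falls with dose and the half-maximal concentration AC50 from the fitted curve is at or below a set limit; inconclusive = flat fit at 30 to 70% signal loss, or invalid fit; inactive = AC50 above the limit, or signal rises instead.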

These molecules were tested on INS-1E cytokine-induced caspase-3/7, Caspase-Glo luminescence, 48 h (assay: inhibitors of cytokine-induced caspase-3/7 activity, dose response, orthogonal assay for beta-cell apoptosis protection project, INS-1E rat cells, luminescence (AID 463206)).

Compound | AC50
CC(C)(C)C1C/C(=C/c2ccccn2)C(=O)/C(=C/c2ccccn2)C1 (stereo not drawn) | > 26 µM (inactive)
CCn1nc(C)c(CNC(=O)c2ccc(OC3CCN(Cc4ccccn4)CC3)cc2)c1C | > 26 µM (inactive)
CCCCN(C)CCNC(=O)c1cc2c(-c3ccccc3F)nn(C)c2s1 | > 12 µM (inactive)
COc1cnc(-c2ccccn2)nc1Oc1ccc(Cl)c2ccccc12 | > 26 µM (inactive)
COc1ccc2[nH]c3c(C)c4ccncc4c(C)c3c2c1 | 1.32 µM
CC(C)Nc1ccc(Nc2ccnc3cc4ccccc4cc23)cc1 | 3.23 µM
CCOC(=O)CC1CCCCN1C(=O)c1cc(COc2cccc3cnccc23)on1 (stereo not drawn) | > 26 µM (inactive)
CCn1c(=O)c([N+](=O)[O-])c(Cl)c2ccccc21 | > 26 µM (inactive)
O=C(c1cc2sccc2n1Cc1ccccc1)N1CCN(c2nc3ccccc3s2)CC1 | > 26 µM (inactive)
CCOC(=O)c1c(NC(=O)C[n+]2ccc(Cc3ccccc3)cc2)sc(C)c1C | > 26 µM (inactive)
O=C([O-])c1cc(-c2ccccc2)cc(-c2ccccc2)[n+]1Cc1ccccc1 | > 26 µM (inactive)
C/C(=N\NC(=O)c1nnn(-c2nonc2N)c1CN(C)c1ccccc1)c1ccccc1O | > 26 µM (inactive)
Nc1cc2c3c(cccc3c1)C(=O)N(CCN1CCCC1)C2=O | 15.4 µM
CC(=O)c1sc(NC(=O)C2(F)C(F)(F)C(F)(F)C(F)(F)C(F)(F)C2(F)F)nc1C | > 26 µM (inactive)
CCS(=O)(=O)c1ncc(Cl)c(C(=O)Nc2ccccc2OC)n1 | > 26 µM (inactive)
C/C(=N\NC(=O)c1cc(-c2cccnc2)nc2ccccc12)c1ccccc1O | > 26 µM (inactive)
C=C1C(=O)O[C@H]2C[C@@H](C)[C@@H]3C=CC(=O)[C@@]3(C)C[C@H]12 | 2.83 µM
CC(NC(=O)c1cc(COc2ccc3ncccc3c2)on1)c1ccc(F)cc1 (stereo not drawn) | > 26 µM (inactive)
COc1ccc(/C=C/c2cc(-c3ccc(C)cc3)o[n+]2C)cc1 | > 26 µM (inactive)
O=C(Nc1ccc(C(=O)Nc2ccccc2Cl)cc1)c1cccnc1 | > 26 µM (inactive)
Cc1[nH]n(-c2ccccc2)c(=O)c1/C=N/NC(=O)COc1ccccc1[N+](=O)[O-] | > 26 µM (inactive)
CC(C)(C)C(=O)NC(=S)NNC(=O)c1ccc(-c2ccccc2)cc1 | > 26 µM (inactive)
Cc1[nH]n(C2=NCCS2)c(=O)c1N=Nc1cccc(C(F)(F)F)c1 | > 26 µM (inactive)

Compound | AC50
O=C(Nc1nc(-c2ccccn2)cs1)c1ccc(Br)s1 | > 26 µM (inactive)
CCOC(=O)c1c(C)oc2c1C(=O)c1ccccc1C2=O | > 26 µM (inactive)
C/C(=N\NC(=O)C(C)n1nc(C)c([N+](=O)[O-])c1C)c1ccccc1O (stereo not drawn) | > 26 µM (inactive)
COc1cccc(C(=O)Oc2c(CN3CCOCC3)cc(Cl)c3cccnc23)c1 | > 26 µM (inactive)
COc1ccccc1/C=N\Nc1cc(C)nc(-n2nc(C)cc2C)n1 | > 26 µM (inactive)
COc1ccc2[nH]c(C(=O)N/N=C/c3ccc(O)cc3O)cc2c1 | > 26 µM (inactive)
O=C1C(Nc2ccccc2)=C/C(=N/S(=O)(=O)c2cccs2)c2ccccc21 | > 26 µM (inactive)
COc1cc2cc(C(=O)N3CCOCC3)cc(-c3ccc(C)cc3)c2cc1OC | > 26 µM (inactive)
CCn1c(=NC(=O)c2ccc(S(=O)(=O)N3CCOCC3)cc2)sc2cccc(OC)c21 | > 26 µM (inactive)
CCN1CCN(c2c(Cl)cccc2NC(=O)c2ccc([N+](=O)[O-])o2)CC1 | > 26 µM (inactive)
CCN(CC)S(=O)(=O)c1ccc(Cl)c(C(=O)Nc2ccc(Cl)cc2[N+](=O)[O-])c1 | > 26 µM (inactive)
COc1cc(C)c(C(=O)CC(=O)c2c(C)cc(OC)cc2C)c(C)c1 | > 26 µM (inactive)
COc1ccccc1-n1c(-c2ccccc2)c[n+]2c1CCc1ccccc1-2 | > 26 µM (inactive)
Cc1ccc(NC(=S)N/N=C/c2ccc([N+](=O)[O-])s2)cc1 | > 26 µM (inactive)
CC1(C)CC(N2CCN(Cc3ccccc3)CC2)=CC(=[N+]2CCCCC2)C1 | > 26 µM (inactive)
O=C(Cn1c(-c2ccccc2)c[n+]2ccsc12)c1ccc([N+](=O)[O-])cc1 | > 26 µM (inactive)
O=C(Nc1cccc(Cl)c1)Nc1nnc(-c2ccncc2)s1 | > 26 µM (inactive)
O=C(Oc1c(CN2CCOCC2)cc(Cl)c2cccnc12)c1ccccc1 | > 26 µM (inactive)
O=C1/C(=N\S(=O)(=O)c2cccs2)C([n+]2ccc(CCCc3ccccc3)cc2)=C([O-])c2ccccc21 | > 12 µM (inactive)
Cc1cc(F)ccc1S(=O)(=O)Nc1ccccc1C(=O)Nc1ccccc1-c1nc2ccccc2[nH]1 | > 26 µM (inactive)
CC(C)NC(=S)N/N=C/c1cc(Br)ccc1O | > 26 µM (inactive)
C=CCNC1=C(Cl)C(=O)c2ccccc2C1=O | > 26 µM (inactive)
CCc1ccc(NC(=O)CSc2ccc(-c3ccccn3)nn2)cc1 | > 26 µM (inactive)

Compound | AC50
Cc1ccc(-c2cc3cccc[n+]3cc2-c2ccc(C)cc2)cc1 | > 26 µM (inactive)
CCCCCCCNC1=CC(=O)CC(c2ccccc2)C1 (stereo not drawn) | > 12 µM (inactive)
Clc1ccc(C(c2ccc(Cl)cc2)n2cc[n+](CC(OCc3ccc(Cl)cc3Cl)c3ccc(Cl)cc3Cl)c2)cc1 (stereo not drawn) | > 26 µM (inactive)
COc1ccc(O)c(/C=N/Nc2nc(Nc3ccccc3)nc(-n3nc(C)cc3C)n2)c1 | > 26 µM (inactive)
O=C(/C(N=Nc1cccc([N+](=O)[O-])c1)=C(/O)c1ccc(Br)cc1)C(F)(F)F | > 26 µM (inactive)
O=C1C(Cl)=C(NCc2cccnc2)C(=O)c2ccccc21 | > 26 µM (inactive)
NC(N)=N/N=C/c1ccc(N(c2ccccc2)c2ccccc2)cc1 | > 26 µM (inactive)
COc1ccccc1OCCCCOc1ccccc1C(C)=O | > 26 µM (inactive)
CCCCCCCCCCOC(=O)Cn1c(COc2ccc(C)cc2)[n+](C)c2ccccc21 | > 26 µM (inactive)
O=[N+]([O-])c1ccc(O)c(/C=N/NC(=S)Nc2ccc(Cl)cc2Cl)c1 | > 26 µM (inactive)
CCc1ccc2c(c1)C1(C(=O)N2)N2CCCC2C(C(=O)c2ccc3ccccc3c2)C12C(=O)Nc1ccccc12 (stereo not drawn) | > 26 µM (inactive)
Cc1cc(N/N=C/c2ccc(O)cc2O)nc(-c2ccccc2O)n1 | > 26 µM (inactive)
O=C(Nc1ccc(OCC(F)(F)C(F)F)c(C(F)(F)F)c1)c1ccccc1O | > 26 µM (inactive)
COc1cc(OC)c2cc(C(=O)N/N=C/c3cccc(OC)c3O)[nH]c2c1 | > 26 µM (inactive)
CCCCCCCCn1c2c(c(=N)c3c1CCC3)CCCC2 | > 26 µM (inactive)
NS(=O)(=O)c1ccc(N/N=C/c2cn(-c3ccccc3)nc2-c2cccs2)c([N+](=O)[O-])c1 | 19 µM
CC1=C(C)/C(=N\OS(=O)(=O)c2ccccc2)C=CC1=O | > 26 µM (inactive)
NC(=NCCCCCCN=C(N)/N=C(\N)Nc1ccc(Cl)cc1)/N=C(\N)Nc1ccc(Cl)cc1 | > 26 µM (inactive)
O=C(Nc1ccc(OC(F)F)c(Cl)c1)C(c1ccccc1)c1ccccc1 | > 26 µM (inactive)
Cc1cc(N2CCOCC2)n2ncc(-c3ccccc3)c2n1 | > 26 µM (inactive)
CCCC(C)C(=O)Nc1nc(C)c(-c2csc(Nc3ccc(Cl)cc3)n2)s1 (stereo not drawn) | > 26 µM (inactive)
COc1ccc(C(=O)Nc2ccccc2C(=O)N/N=C/c2ccccn2)cc1OC | > 26 µM (inactive)
